Read-outs that look alike come from different tables or passages of the source.
Assays:
D2 receptor = D2 receptor (Chlorocebus aethiops, UniProt P52702); experiment: D2 receptor binding activity ([3H]-YM 09151-2 displacement); parameters: species or system African Green monkey; conditions: COS cell pellets with recombinant D2; 0.5 nM 3H-YM 09151-2; nonspecific 1 mM spiperone
Procedure: (§1) Pellets of COS cells containing recombinantly produced D2 or D3 receptors from African Green monkey were used for the assays. The sample is homogenized in 100 volumes (w/vol) of 0.05M Tris HCl buffer at 4° C. and pH 7.4. The sample is then centrifuged at 30,000×g and resuspended and rehomogenized. The sample is then centrifuged as described and the final tissue sample is frozen until use. The tissue is resuspended 1:20 (wt/vol) in 0.05M Tris HCl buffer containing 100 mM NaCl.
(§2) Incubations are carried out at […] and contain 0.4 ml of tissue sample, 0.5 nM ^3 H-YM 09151-2 and the compound of interest in a total incubation of 1.0 ml. Nonspecific binding is defined as that binding found in the presence of 1 mM spiperone; without further additions, nonspecific binding is less than 20% of total binding. The binding characteristics of examples of this patent for the D2 and D3 receptor subtypes are shown in Table 2 for Rat Striatal Homogenates.

[1] = molecular target: T1, human dopamine D4 receptor (Homo sapiens, UniProt P21917); experiment: D4 receptor binding activity ([3H]YM-09151-2 displacement); conditions: human D4 clonal cell lines; 0.1 nM [3H]YM-09151-2; 60 minutes at 25° C.; pH 7.4
T1 construct: expressed in transfected cells
T1 sequence (P21917 1-419): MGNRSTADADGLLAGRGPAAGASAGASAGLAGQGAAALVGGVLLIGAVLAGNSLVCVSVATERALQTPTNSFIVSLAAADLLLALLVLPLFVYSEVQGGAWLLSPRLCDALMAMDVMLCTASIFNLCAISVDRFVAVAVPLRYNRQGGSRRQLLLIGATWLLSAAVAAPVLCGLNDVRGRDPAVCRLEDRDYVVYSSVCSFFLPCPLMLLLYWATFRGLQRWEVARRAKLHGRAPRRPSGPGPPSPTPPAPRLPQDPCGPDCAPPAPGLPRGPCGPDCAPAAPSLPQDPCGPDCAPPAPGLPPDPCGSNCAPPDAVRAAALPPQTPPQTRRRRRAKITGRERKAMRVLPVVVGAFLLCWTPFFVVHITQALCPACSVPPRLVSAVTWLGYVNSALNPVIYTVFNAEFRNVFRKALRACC
Procedure: Clonal cell lines expressing the human dopamine D4 receptor subtype were harvested in PBS and the cells centrifuged and the pellets stored at -80° C. until used in the binding assay. The pellets were resuspended and the cells lysed at 4° C. in 50 mM Tris pH 7.4 buffer containing 120 mM NaCl, 1 mM EDTA and 5 mM MgCl2. The homogenate is centrifuged at 48000×g for 10 minutes at 4° C. The resulting pellet is resuspended in fresh buffer and centrifuged again. After resuspension of the pellet in fresh buffer a […] aliquot is removed for protein determination. The remaining homogenate is centrifuged as above, the supernatant removed and the pellet stored at 4° C. until needed at which time it is resuspended to a final concentration of […] with 50 mM Tris buffer (pH 7.4) and 120 mM NaCl just prior to use. Incubations were carried out for 60 minutes at 25° C. in the presence of 0.1 nM [^3 H]YM-09151-2. The incubation was terminated by rapid filtration through Whatman GF/C filters and rinsed with 2×4 ml washes of chilled 50 mM Tris (pH 7.4) and 120 mM NaCl. Non-specific binding was determined with 1 mM spiperone and radioactivity determined by counting in an LKB beta counter. Binding parameters were determined by non-linear least squares regression analysis, from which the inhibition constant Ki could be calculated for each test compound. The binding characteristics of some examples of this invention are shown in Table 3 for the dopamine D4 binding assay.

D3 receptor = molecular target: T2, D3 receptor (Chlorocebus aethiops, UniProt P52703); experiment: D3 receptor binding activity ([3H]-YM 09151-2 displacement); parameters: species or system African Green monkey; conditions: COS cell pellets with recombinant D3; 0.5 nM 3H-YM 09151-2; nonspecific 1 mM spiperone
T2 construct: expressed in transfected cells; host or cells: COS cells (membrane homogenate)
Procedure: as §1, §2

[2] = cited from earlier work
D2 receptors = conditions: background statement; cited from earlier work
D1 dopamine receptor = conditions: background statement; cited from earlier work

T2 sequence (P52703 whole entry): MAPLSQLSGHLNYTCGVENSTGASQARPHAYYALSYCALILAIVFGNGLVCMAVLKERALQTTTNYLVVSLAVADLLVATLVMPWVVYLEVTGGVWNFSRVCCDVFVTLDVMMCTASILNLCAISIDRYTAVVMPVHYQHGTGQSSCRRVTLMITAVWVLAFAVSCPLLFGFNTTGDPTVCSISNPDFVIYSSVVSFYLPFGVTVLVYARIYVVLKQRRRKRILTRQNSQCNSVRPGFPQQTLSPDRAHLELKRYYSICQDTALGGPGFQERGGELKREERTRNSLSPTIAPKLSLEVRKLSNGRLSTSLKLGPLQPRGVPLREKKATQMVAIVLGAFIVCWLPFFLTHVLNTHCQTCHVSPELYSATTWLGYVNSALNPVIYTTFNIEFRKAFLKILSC
D2 receptor, sequence (P52702 whole entry): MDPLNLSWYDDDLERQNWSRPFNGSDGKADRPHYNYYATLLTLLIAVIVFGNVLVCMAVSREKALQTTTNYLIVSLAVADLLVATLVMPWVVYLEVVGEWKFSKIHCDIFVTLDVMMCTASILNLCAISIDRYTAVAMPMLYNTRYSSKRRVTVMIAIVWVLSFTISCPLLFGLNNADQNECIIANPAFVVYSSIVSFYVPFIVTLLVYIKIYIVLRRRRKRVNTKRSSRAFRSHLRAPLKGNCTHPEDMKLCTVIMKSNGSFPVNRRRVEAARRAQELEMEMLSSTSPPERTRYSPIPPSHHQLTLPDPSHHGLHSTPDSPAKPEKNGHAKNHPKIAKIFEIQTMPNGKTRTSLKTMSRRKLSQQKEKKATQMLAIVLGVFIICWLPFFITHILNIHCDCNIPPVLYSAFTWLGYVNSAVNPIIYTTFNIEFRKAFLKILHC

Row | Structure (SMILES) | Ki (D2 receptor) [nM] | Ki [1] [nM] | Ki (D3 receptor) [nM] | further results
1 | CN1CCN(C2=Nc3cc(Cl)ccc3Nc3ccccc32)CC1 [clozapine] |  |  |  | incidence of extrapyramidal side effects (EPS) ([2]; versus classical neuroleptics, background statement): lesser incidence of extrapyramidal side effects (EPS) than classical neuroleptics
2 | O=C(CCCN1CCC(O)(c2ccc(Cl)cc2)CC1)c1ccc(F)cc1 [haloperidol] |  |  |  | binding affinity at D2 receptors (D2 receptors): in the subnanomolar range; binding at D1 dopamine receptor (D1 dopamine receptor): binds relatively weakly
3 | CCN1CCCC1CNC(=O)c1cc(S(N)(=O)=O)ccc1OC (stereo not shown) [sulpiride] |  |  |  | incidence of extrapyramidal side effects (EPS) ([2]; in vivo): lesser incidence of extrapyramidal side effects (EPS) than classical neuroleptics

The next lines start with results.

Row | Ki (D2 receptor) [nM] | Ki [1] [nM] | Ki (D3 receptor) [nM] | Structure (SMILES) | further results
4 | 2380 | 12 | > 100000 | c1cnc(N2CCN(CCNC3=NCc4ccccc43)CC2)nc1 [Compound 1] | 
5 | 1420 | 70 | > 100000 | c1cnc(N2CCN(CCCNC3=NCc4ccccc43)CC2)nc1 [Compound 2] | 
6 | 1940 | 100 | > 100000 | CN(CCCc1ccccc1)CCNC1=NCc2ccccc21 [Compound 3, 1-(N-[2-{N'-(3-phenylpropyl)-N'-methyl}aminoethyl])aminoisoindole dioxolate] | 
